Measurements taken from US20230117034A1, “PYRAZOLOTRIAZINES” (Bayer Aktiengesellschaft, priority 2019, published 2023).

The molecules below were run against CDK12/CycK (Homo sapiens, UniProt Q9NYV4) (assay: CDK12/CycK high ATP kinase assay (TR-FRET, 2 mM ATP)). Details: 2 mM ATP (high ATP); median; read-out: CDK12/CyclinK, 2 mM ATP (high ATP), IC50-[mol/l] (median).
Sequence of CDK12/CycK (Q9NYV4 with tags, fused parts or gaps): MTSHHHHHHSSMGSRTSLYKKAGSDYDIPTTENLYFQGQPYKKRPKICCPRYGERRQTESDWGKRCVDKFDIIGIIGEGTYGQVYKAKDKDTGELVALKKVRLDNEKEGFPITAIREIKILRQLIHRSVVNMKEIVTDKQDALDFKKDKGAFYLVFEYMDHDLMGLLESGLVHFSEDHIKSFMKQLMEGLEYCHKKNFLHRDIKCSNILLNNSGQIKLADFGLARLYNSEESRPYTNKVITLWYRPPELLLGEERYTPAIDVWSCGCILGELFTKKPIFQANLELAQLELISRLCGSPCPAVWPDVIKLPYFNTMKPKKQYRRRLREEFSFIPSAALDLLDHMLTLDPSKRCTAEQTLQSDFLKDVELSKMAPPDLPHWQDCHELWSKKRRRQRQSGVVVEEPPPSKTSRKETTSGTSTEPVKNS
Sequence of CDK12/CycK (O75909 1-300 partner limits assumed): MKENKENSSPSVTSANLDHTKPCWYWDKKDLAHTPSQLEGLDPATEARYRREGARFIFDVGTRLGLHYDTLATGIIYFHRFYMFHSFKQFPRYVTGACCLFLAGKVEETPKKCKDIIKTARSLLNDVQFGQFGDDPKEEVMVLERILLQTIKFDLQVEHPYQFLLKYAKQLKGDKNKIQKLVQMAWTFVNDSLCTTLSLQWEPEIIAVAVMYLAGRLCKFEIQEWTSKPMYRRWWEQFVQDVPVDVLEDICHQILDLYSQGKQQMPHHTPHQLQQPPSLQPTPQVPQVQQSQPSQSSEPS
Assay type: biochemical
How it was run: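 His-tagged human CDK12/CycK (~0.75 nM) pre-incubated 15 min with compound, then 60 min at 22 °C with 2 mM ATP and 1 µM biotinylated peptide (HEPES pH 7.5, 20 mM MgCl2). EDTA stop; phospho-Ser62 antibody/Eu anti-rabbit and streptavidin-XL665 TR-FRET, 665/620 nm ratio normalised to give IC50.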
Work on `Clc1cccc(-c2nnc(CNc3nc(N4CCOCC4)nc4c(Br)cnn34)[nH]2)c1` [Example 51, 8-bromo-N-{[5-(3-chlorophenyl)-4H-1,2,4-triazol-3-yl]methyl}-2-(morpholin-4-yl)pyrazolo[1,5-a][1,3,5]triazin-4-amine] yielded an IC50 of 1730 nM. `Fc1ccc2[nH]c(CNc3nc(N4CCOCC4)nc4c(-c5ccnnc5)cnn34)nc2c1F` [Example 417, N-[(4,5-difluoro-1H-benzimidazol-2-yl)methyl]-2-(morpholin-4-yl)-8-(pyridazin-4-yl)pyrazolo[1,5-a][1,3,5]triazin-4-amine] was tested, and the IC50 was over 7750 nM. `Fc1ccc2[nH]c(CNc3nc(N4CCN5CCC4CC5)nc4c(C(F)(F)F)cnn34)nc2c1F` [Example 407, 2-(1,4-diazabicyclo[3.2.2]nonan-4-yl)-N-[(4,5-difluoro-1H-benzimidazol-2-yl)methyl]-8-(trifluoromethyl)pyrazolo[1,5-a][1,3,5]triazin-4-amine] was tested, and the IC50 was 706 nM. `Brc1cnn2c(NCc3nc4ccccc4[nH]3)nc(OCC3CC3)nc12` [Example 408, N-[(1H-benzimidazol-2-yl)methyl]-8-bromo-2-(cyclopropylmethoxy)pyrazolo[1,5-a][1,3,5]triazin-4-amine] gave an IC50 of over 20000 nM. Molecule `Fc1ccc2[nH]c(CNc3nc(N4CCOCC4)nc4c(C(F)(F)F)cnn34)nc2c1F` [Example 426, N-[(4,5-difluoro-1H-benzimidazol-2-yl)methyl]-2-(morpholin-4-yl)-8-(trifluoromethyl)pyrazolo [1,5-a][1,3,5]triazin-4-amine] has an IC50 of 23.9 nM. `Cc1cnn2c(NCc3nc4ccccc4[nH]3)nc(N3CCN(C)CC3)nc12` [Example 396, N-[(1H-benzimidazol-2-yl)methyl]-8-methyl-2-(4-methylpiperazin-1-yl)pyrazolo[1,5-a][1,3,5]triazin-4-amine] gave an IC50 of over 20000 nM. Molecule `CCc1cnn2c(NCc3nc4ccccc4[nH]3)nc(N3CCN(C)CC3)nc12` [Example 434, N-[(1H-benzimidazol-2-yl)methyl]-8-ethyl-2-(4-methylpiperazin-1-yl)pyrazolo[1,5-a][1,3,5] triazin-4-amine] has an IC50 of over 17600 nM. Work on `Brc1cnn2c(NCc3nnc(-c4cccnc4)[nH]3)nc(N3CCOCC3)nc12` [Example 53, 8-bromo-2-(morpholin-4-yl)-N-{[5-(pyridin-3-yl)-4H-1,2,4-triazol-3-yl]methyl}pyrazolo[1,5-a][1,3,5]triazin-4-amine] yielded an IC50 of 2030 nM. Molecule `Clc1cc2nc(CNc3nc(N4CCOCC4)nc4c(-c5cncs5)cnn34)[nH]c2cc1Cl` [Example 443, N-[(5,6-dichloro-1H-benzimidazol-2-yl)methyl]-2-(morpholin-4-yl)-8-(1,3-thiazol-5-yl)pyrazolo[1,5-a][1,3,5]triazin-4-amine] has an IC50 of 3980 nM. With `Cn1cc(-c2cnn3c(NCc4nc5cc(Cl)c(Cl)cc5[nH]4)nc(N4CCOCC4)nc23)cn1` [Example 419, N-[(5,6-dichloro-1H-benzimidazol-2-yl)methyl]-8-(1-methyl-1H-pyrazol-4-yl)-2-(morpholin-4-yl)pyrazolo[1,5-a][1,3,5]triazin-4-amine] the IC50 was over 20000 nM. `Fc1ccc2[nH]c(CNc3nc(N4CCOCC4)nc4c(CC(F)F)cnn34)nc2c1F.O=C(O)C(F)(F)F` [Example 425, trifluoroacetic acid N-[(4,5-difluoro-1H-benzimidazol-2-yl)methyl]-8-(2,2-difluoroethyl)-2-(morpholin-4-yl)pyrazolo[1,5-a][1,3,5]triazin-4-amine] was tested, and the IC50 was 2140 nM. Molecule `CN1CCN(c2nc(NCc3nc4c(F)c(F)ccc4[nH]3)n3ncc(-c4nccs4)c3n2)CC1` [Example 415, N-[(4,5-difluoro-1H-benzimidazol-2-yl)methyl]-2-(4-methylpiperazin-1-yl)-8-(1,3-thiazol-2-yl)pyrazolo[1,5-a][1,3,5]triazin-4-amine] has an IC50 of over 20000 nM.
